Assay results reported in US8513232B2, “Substituted spirocyclic piperidine derivatives as histamine-3 (H3) receptor ligands” (Cephalon, Inc., priority 2008, dated 2013).
Where two headings read alike, the source gives them in different places.

Tests used:
[1] = target: T1, rat histamine H3 receptor (Rattus norvegicus, UniProt Q9QYN8); assay: Rat H3 radioligand binding ([3H]-N-alpha-methylhistamine, SPA)
T1 construct: encoding the entire 445-amino-acid rat histamine H3 receptor; expressed in transfected cells; membrane preparation
Summary of the method: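 Membranes from CHO-A3 cells stably expressing full-length rat H3 receptor (10 μg protein/well) incubated 4 h at room temperature, protected from light, with ~1 nM [3H]-N-alpha-methylhistamine and compound (0.01 nM-30 μM) in 50 mM Tris HCl pH 7.4, 5 mM MgCl2, 0.1% BSA. Binding read by SPA; 10 μM clobenpropit defined non-specific binding.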

human H3 receptor = target: T2, human H3 receptor (Homo sapiens, UniProt Q9Y5N1); assay: Human H3 radioligand binding ([3H]-N-alpha-methylhistamine, SPA)
T2 construct: expressed in transfected cells
Summary of the method: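 SPA competition binding on membranes from CHO cells stably expressing human H3 receptor (10 μg protein/well) with ~1 nM [3H]-N-alpha-methylhistamine and compound at 0.01 nM-30 μM. Incubation 4 h at room temperature in 50 mM Tris-HCl pH 7.4, 5 mM MgCl2, 0.1% BSA; non-specific binding defined with 10 μM clobenpropit.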

[2] = rat H3 binding, Table D, read-out: Rat H3 Ki
[3] = human H3 binding, Table D, read-out: Human H3 Ki
[4] = Table A, rat H3 binding, read-out: Rat Ki
[5] = Table A, human H3 binding, read-out: Human Ki
[6] = Rat H3 binding, Table B, Examples 136-362, read-out: rat H3 binding Ki
[7] = Human H3 binding, Table B, Examples 136-362, read-out: hum H3 binding Ki
[8] = Table C, rat H3 binding, read-out: Rat H3 Ki
[9] = Table C, human H3 binding, read-out: Human H3 Ki

T2 sequence (Q9Y5N1 whole entry): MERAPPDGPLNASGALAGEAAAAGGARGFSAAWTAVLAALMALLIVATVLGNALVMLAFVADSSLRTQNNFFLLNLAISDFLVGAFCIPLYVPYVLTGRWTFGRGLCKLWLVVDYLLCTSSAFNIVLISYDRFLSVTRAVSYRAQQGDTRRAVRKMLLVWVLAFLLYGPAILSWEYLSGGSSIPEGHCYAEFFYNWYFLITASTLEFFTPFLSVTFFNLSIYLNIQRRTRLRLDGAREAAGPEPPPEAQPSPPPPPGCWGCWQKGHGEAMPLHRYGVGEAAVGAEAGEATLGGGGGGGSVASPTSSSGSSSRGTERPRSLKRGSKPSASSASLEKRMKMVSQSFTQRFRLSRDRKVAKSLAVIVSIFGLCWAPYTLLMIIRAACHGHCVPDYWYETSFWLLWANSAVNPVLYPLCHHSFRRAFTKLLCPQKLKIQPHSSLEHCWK
T1 sequence (Q9QYN8 whole entry): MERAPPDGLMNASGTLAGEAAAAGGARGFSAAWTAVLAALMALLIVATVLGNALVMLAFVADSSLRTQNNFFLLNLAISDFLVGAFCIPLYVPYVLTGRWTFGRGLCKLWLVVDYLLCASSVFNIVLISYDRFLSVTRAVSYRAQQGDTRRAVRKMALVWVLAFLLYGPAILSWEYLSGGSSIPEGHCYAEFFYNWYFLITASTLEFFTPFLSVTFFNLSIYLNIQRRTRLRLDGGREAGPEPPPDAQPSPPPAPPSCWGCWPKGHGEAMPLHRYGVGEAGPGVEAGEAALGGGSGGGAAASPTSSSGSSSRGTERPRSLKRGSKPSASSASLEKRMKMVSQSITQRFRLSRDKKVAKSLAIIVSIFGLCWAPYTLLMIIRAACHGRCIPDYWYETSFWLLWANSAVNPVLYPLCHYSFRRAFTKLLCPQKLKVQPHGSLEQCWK

SMILES | Ki [1, 2] [nM] | Ki (human H3 receptor; [3]) [nM] | melting point | Ki [1, 6] [nM] | Ki (human H3 receptor; [7]) [nM] | further results
Cc1c(-c2ccc3c(c2)COC2(CCN(C4CCC4)CC2)O3)ccc(=O)n1C [Example 760] | < 200 | < 200 | 59 to 61 °C | – | – | –
Cc1noc(C)c1-c1ccc2c(c1)COC1(CCN(C3CCC3)CC1)O2 [Example 76] | – | – | 123 to 127 °C | – | – | Ki [1, 4]: < 200 nM; Ki (human H3 receptor; [5]): < 200 nM
CN(C)C(=O)c1ccc(N2CCN(c3ccc4c(c3)COC3(CCN(C5CCC5)CC3)O4)C2=O)cc1 [Example 244] | – | – | 243 to 245 °C | < 200 | < 200 | –
CN(C)C(=O)CC1CCN(c2ccc3c(c2)COC2(CCN(C4CCC4)CC2)O3)CC1 [Example 586] | < 200 | < 200 | 68.5 to 70.2 °C | – | – | –
FC1(F)CCN(c2ccc3c(c2)CCC2(CCN(C4CCC4)CC2)O3)CC1 [Example 404] | – | – | > 283 °C (dec.) | – | – | Ki [1, 8]: < 200 nM; Ki (human H3 receptor; [9]): < 200 nM
CS(=O)(=O)c1ccccc1C(=O)Nc1ccc2c(c1)COC1(CCN(C3CCC3)CC1)O2 [Example 216] | – | – | 143 to 145 °C | < 200 | 200 to 1000 | –
Cc1cc2c(cc1-c1ccc(=O)[nH]c1)COC1(CCN(C3CCC3)CC1)O2 [Example 543] | – | – | 239 to 240 °C | – | – | Ki ([1]; read-out: Rat H3 kI): 200 to 1000 nM; Ki (human H3 receptor; read-out: Human H3 Ki): < 200 nM
O=c1ccc(N2CCN(c3ccc4c(c3)CCC3(CCN(C5CCC5)CC3)O4)CC2)n[nH]1 [Example 419] | – | – | 278 to 280 °C | – | – | Ki [1, 8]: < 200 nM; Ki (human H3 receptor; [9]): < 200 nM
CCS(=O)(=O)c1c[nH]c(=O)cc1-c1ccc2c(c1)COC1(CCN(C3CCC3)CC1)O2 [Example 793] | < 200 | < 200 | 190 to 192 °C | – | – | –
Cc1nnc(C2CC=C(c3ccc4c(c3)COC3(CCN(C5CCC5)CC3)O4)CC2)o1 (stereo not drawn) [Example 689] | < 200 | < 200 | 76.4 to 78.4 °C | – | – | –
COc1ccc(-c2ccc3c(c2)CCC2(CCN(C4CCC4)CC2)O3)c(C)n1 [Example 797] | < 200 | < 200 | 72 to 73 °C | – | – | –
OC1CCC(c2ccc3c(c2)COC2(CCN(C4CCC4)CC2)O3)CC1 (stereo not drawn) [Example 531] | – | – | 113 to 115 °C | – | – | Ki ([1]; read-out: Rat H3 kI): < 200 nM; Ki (human H3 receptor; read-out: Human H3 Ki): < 200 nM
OCCn1cc(-c2ccc3c(c2)CCC2(CCN(C4CCC4)CC2)O3)cn1 [Example 198] | – | – | 101 to 103 °C | < 200 | < 200 | –
CCc1nnc(CCc2ccc3c(c2)COC2(CCN(C4CCC4)CC2)O3)o1 [Example 694] | < 200 | < 200 | 98 to 100 °C | – | – | –
O=S1(=O)CCN(c2ccc3c(c2)CCC2(CCN(C4CCC4)CC2)O3)CC1 [Example 406] | – | – | > 285 °C (dec.) | – | – | Ki [1, 8]: < 200 nM; Ki (human H3 receptor; [9]): < 200 nM
O=S1(=O)CCN(c2ccc3c(c2)COC2(CCN(C4CCC4)CC2)O3)CC1 [Example 421] | – | – | 157 to 158 °C | – | – | Ki [1, 8]: < 200 nM; Ki (human H3 receptor; [9]): < 200 nM
OC1CCC(c2ccc3c(c2)COC2(CCN(C4CCC4)CC2)O3)CC1 (stereo not drawn) [Example 498] | – | – | 150 to 153 °C | – | – | Ki ([1]; read-out: Rat H3 kI): < 200 nM; Ki (human H3 receptor; read-out: Human H3 Ki): < 200 nM
O=C(NC[C@H]1CCCO1)c1ccc(-c2ccc3c(c2)CCC2(CCN(C4CCC4)CC2)O3)cc1Cl [Example 572] | < 200 | < 200 | 62 to 64 °C | – | – | –
O=C1N(CCO)CCN1c1ccc2c(c1)COC1(CCN(C3CCC3)CC1)O2 [Example 146] | – | – | 152 to 155 °C | < 200 | < 200 | –
c1ccc(-c2ccc3c(c2)COC2(CCN(C4CCC4)CC2)O3)cc1 [Example 39] | – | – | 127.8 to 128.6 °C | – | – | Ki [1, 4]: < 200 nM; Ki (human H3 receptor; [5]): < 200 nM

SMILES | Ki [1, 2] [nM] | Ki (human H3 receptor; [3]) [nM] | melting point | Ki [1, 6] [nM] | Ki (human H3 receptor; [7]) [nM] | further results
CNC(=O)c1ccc(-c2ccc3c(c2)CCC2(CCN(C4CCC4)CC2)O3)cn1 [Example 156] | – | – | 67 to 69 °C | < 200 | < 200 | –
FC1(F)CCN(c2ccc3c(c2)CCC2(CCN(C4CCC4)CC2)O3)C1 [Example 413] | – | – | > 275 °C (dec.) | – | – | Ki [1, 8]: < 200 nM; Ki (human H3 receptor; [9]): < 200 nM
OC1(c2ccc3c(c2)COC2(CCN(C4CCC4)CC2)O3)CCC(F)(F)CC1 [Example 554] | – | – | 186 to 187 °C | – | – | Ki ([1]; read-out: Rat H3 kI): < 200 nM; Ki (human H3 receptor; read-out: Human H3 Ki): < 200 nM
Cn1cc(-c2ccc3c(c2)COC2(CCN(C4CCC4)CC2)O3)c(CO)cc1=O [Example 770] | < 200 | < 200 | 120 to 123 °C | – | – | –
Cc1cc(-c2ccc3c(c2)COC2(CCN(C4CCC4)CC2)O3)ccc1C(=O)NCCO [Example 231] | – | – | 168.5 to 169.9 °C | < 200 | < 200 | –
C/C=C(\CC)c1ccc2c(c1)COC1(CCN(C3CCC3)CC1)O2 [Example 677] | < 200 | < 200 | 223.5 to 225.8 °C | – | – | –
O=C(N1CCCC1)N1CCN(c2ccc3c(c2)COC2(CCN(C4CCC4)CC2)O3)CC1 [Example 307] | – | – | 132 to 135 °C | < 200 | < 200 | –
O=C(c1ccc(-c2ccc3c(c2)COC2(CCN(C4CCC4)CC2)O3)cc1)N1CCC[C@@H](O)C1 [Example 201] | – | – | 85 to 87 °C | < 200 | < 200 | –
CC(C)NC(=O)c1ccc(-c2ccc3c(c2)COC2(CCN(C4CCC4)CC2)O3)cc1 [Example 301] | – | – | 221 to 222 °C | < 200 | < 200 | –
O=C1N(c2ccncc2)CCN1c1ccc2c(c1)CCC1(CCN(C3CCC3)CC1)O2 [Example 210] | – | – | 208 to 210 °C | < 200 | < 200 | –
O=c1ccc(-c2ccc3c(c2)COC2(CCN(C4CCC4)CC2)O3)cn1C(F)F [Example 737] | < 200 | < 200 | 125 to 127 °C | – | – | –
NC(=O)c1ccc(-c2ccc3c(c2)COC2(CCN(C4CCC4)CC2)O3)c(Cl)c1 [Example 715] | < 200 | < 200 | 112 to 114 °C | – | – | –
CC(=O)N1CCC(Oc2ccc3c(c2)CCC2(CCN(C4CCC4)CC2)O3)CC1 [Example 426] | – | – | 227 to 229 °C | – | – | Ki [1, 8]: < 200 nM; Ki (human H3 receptor; [9]): < 200 nM
O=C(NC1CCOCC1)c1ccc(-c2ccc3c(c2)COC2(CCN(C4CCC4)CC2)O3)cc1 [Example 362] | – | – | 216 to 218 °C | < 200 | < 200 | –
Cn1ccc(-c2ccc3c(c2)COC2(CCN(C4CCC4)CC2)O3)cc1=O [Example 547] | – | – | 208 to 209 °C | – | – | Ki ([1]; read-out: Rat H3 kI): < 200 nM; Ki (human H3 receptor; read-out: Human H3 Ki): < 200 nM
COc1cc(-c2ccc3c(c2)COC2(CCN(C4CCC4)CC2)O3)cn(C)c1=O [Example 761] | < 200 | < 200 | 70 to 72 °C | – | – | –
O=C(Nc1ccc2c(c1)COC1(CCN(C3CCC3)CC1)O2)c1ccc2[nH]cnc2c1 [Example 326] | – | – | 235 to 237 °C | < 200 | < 200 | –
c1csc(-c2ccc3c(c2)COC2(CCN(C4CCC4)CC2)O3)n1 [Example 143] | – | – | 181 to 183 °C | < 200 | < 200 | –
FC(F)(F)c1cccnc1N1CCN(c2ccc3c(c2)CCC2(CCN(C4CCC4)CC2)O3)CC1 [Example 367] | – | – | 138 to 139 °C | – | – | Ki [1, 8]: < 200 nM; Ki (human H3 receptor; [9]): < 200 nM
c1ccc(OC2CCN(c3ccc4c(c3)CCC3(CCN(C5CCC5)CC3)O4)CC2)nc1 [Example 412] | – | – | 240 to 245 °C | – | – | Ki [1, 8]: < 200 nM; Ki (human H3 receptor; [9]): < 200 nM
